Results from PMC10222328 (Pharmaceuticals, 2023).

What was measured:
[1] = system: carrageenan-induced rat paw edema; experiment: Carrageenan-induced rat paw edema model; type: in vivo, Wistar albino rats; conditions: for Rat paw thickness: mean ± SD; for inhibition in vivo at 2.5 mg/kg / inhibition in vivo at 5 mg/kg / inhibition in vivo at 10 mg/kg: Rattus norvegicus, po
Procedure: In vivo assessment of anti-inflammatory activity of compounds 1–7 was conducted in the carrageenan-induced rat paw edema model. Inflammation in all rats was induced by an intraplantar injection of […] of 0.5% carrageenan saline in the left hind paw. Two hundred male Wistar albino rats (180–210 g) were divided into seven experimental (n = 168 rats, 8 rats per subgroup) and two control groups (n = 32 rats, 8 rats per subgroup).
Experimental groups involved rats that received compounds 1–7, and they were divided into three subgroups: rats received compounds 1–7 per os in three doses (2.5 mg/kg, 5 mg/kg, and 10 mg/kg) dissolved in 1% DMSO for 60 min before inducing inflammation.
In order to quantify the anti-inflammatory effect, the thickness of the left paw tissue of each rat was measured at the following time intervals: immediately before inducing inflammation (moment 0) and 1, 2, 3, and 4 h (moments 1, 2, 3, and 4) after inflammation. Tissue thickness was measured in the middle of the rat paw using a digital vernier caliper (Aerospace, Beijing, China).

COX-2 = target: T1, COX-2 (Homo sapiens, UniProt P35354); experiment: Fluorometric COX-2 inhibitor screening kit; type: biochemical; conditions: at 10 µM; mean ± standard error of two measurements; read-out: COX-2 Percent of Inhibition
T1 construct: purchased Abcam, UK
T1 sequence (P35354 18-604): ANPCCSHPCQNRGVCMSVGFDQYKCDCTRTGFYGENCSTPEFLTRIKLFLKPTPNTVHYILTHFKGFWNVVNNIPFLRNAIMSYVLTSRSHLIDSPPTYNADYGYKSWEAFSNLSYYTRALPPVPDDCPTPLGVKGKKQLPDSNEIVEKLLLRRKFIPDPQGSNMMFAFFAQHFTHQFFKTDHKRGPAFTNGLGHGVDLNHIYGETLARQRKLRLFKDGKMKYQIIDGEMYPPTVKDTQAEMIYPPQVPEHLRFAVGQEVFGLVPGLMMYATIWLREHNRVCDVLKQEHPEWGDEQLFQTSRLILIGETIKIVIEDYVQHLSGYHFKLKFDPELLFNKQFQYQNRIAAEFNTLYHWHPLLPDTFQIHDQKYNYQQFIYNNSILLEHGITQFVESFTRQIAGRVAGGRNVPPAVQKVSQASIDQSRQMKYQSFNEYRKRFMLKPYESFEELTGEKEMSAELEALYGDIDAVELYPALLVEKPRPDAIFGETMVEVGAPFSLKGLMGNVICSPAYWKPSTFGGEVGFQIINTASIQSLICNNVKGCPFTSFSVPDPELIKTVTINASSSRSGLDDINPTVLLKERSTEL
Procedure: (§1) COX-2 and 5-LOX inhibitory activities were tested using fluorometric COX-2 and 5-LOX inhibitor screening kits (Abcam, UK). These assays are based on the fluorometric detection of Prostaglandin G2 (a product generated by the COX enzyme) or on the fluorometric detection of intermediate generated by the 5-LOX enzyme. The experiments were conducted according to the manufacturers’ instructions.
(§2) For the determination of COX-2 inhibitory activity, tested compounds were dissolved in DMSO (5 mM stock solutions) and then diluted with the same solvent to obtain test solutions. Test solutions were further diluted 5X with COX assay buffer (2 µL of test solution and 8 µL COX assay buffer). […] Solvent control (SC) was prepared by adding 2 µL DMSO and 8 µL COX assay buffer, while sample (S) and enzyme control (EC) were prepared by adding 10 µL of diluted test solution and COX assay buffer, respectively, into assigned wells. For the determination of 5-LOX inhibitory activity, tested compounds were also dissolved in DMSO to prepare stock solutions with the same concentration (5mM), which were then diluted with the same solvent to obtain test solutions. Subsequently, test solutions were added to corresponding wells (2 µL).

5-LOX = target: T2, 5-LOX (Homo sapiens, UniProt P09917); experiment: Fluorometric 5-LOX inhibitor screening kit; type: biochemical; conditions: mean ± standard error of two measurements; for inhibition at 10 µM: read-out: 5-LOX Percent of Inhibition
T2 construct: purchased Abcam, UK
T2 sequence (P09917 1-674): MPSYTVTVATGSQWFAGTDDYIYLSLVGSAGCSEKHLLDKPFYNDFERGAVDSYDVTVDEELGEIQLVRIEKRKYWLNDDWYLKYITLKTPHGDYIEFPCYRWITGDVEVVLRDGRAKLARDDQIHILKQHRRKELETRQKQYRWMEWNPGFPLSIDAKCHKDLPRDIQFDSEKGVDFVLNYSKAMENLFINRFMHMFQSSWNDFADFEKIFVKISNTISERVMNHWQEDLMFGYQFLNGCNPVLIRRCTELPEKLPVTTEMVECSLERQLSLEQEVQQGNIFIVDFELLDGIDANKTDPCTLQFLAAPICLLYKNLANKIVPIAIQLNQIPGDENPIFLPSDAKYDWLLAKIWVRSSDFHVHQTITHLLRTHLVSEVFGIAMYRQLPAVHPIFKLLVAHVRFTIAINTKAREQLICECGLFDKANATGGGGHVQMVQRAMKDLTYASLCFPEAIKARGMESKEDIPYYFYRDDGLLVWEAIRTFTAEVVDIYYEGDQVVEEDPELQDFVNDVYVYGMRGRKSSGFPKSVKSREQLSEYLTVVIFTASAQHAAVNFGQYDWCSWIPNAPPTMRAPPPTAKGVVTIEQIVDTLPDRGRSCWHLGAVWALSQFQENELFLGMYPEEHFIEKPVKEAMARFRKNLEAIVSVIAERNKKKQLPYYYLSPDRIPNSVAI
Procedure: as §1, §2

[2] = 2.5 mg/kg per os, 1 h after carrageenan
[3] = 2.5 mg/kg per os, 2 h after carrageenan
[4] = 2.5 mg/kg per os, 3 h after carrageenan
[5] = 2.5 mg/kg per os, 4 h after carrageenan
[6] = 5.0 mg/kg per os, 1 h after carrageenan
[7] = 5.0 mg/kg per os, 2 h after carrageenan
[8] = 5.0 mg/kg per os, 3 h after carrageenan
[9] = 5.0 mg/kg per os, 4 h after carrageenan
[10] = 10.0 mg/kg per os, 1 h after carrageenan
[11] = 10.0 mg/kg per os, 2 h after carrageenan
[12] = 10.0 mg/kg per os, 3 h after carrageenan
[13] = 10.0 mg/kg per os, 4 h after carrageenan
[14] = 1 h, 2.5 mg/kg per os, 1 h after carrageenan
[15] = 1 h, 5.0 mg/kg per os, 1 h after carrageenan
[16] = 1 h, 10.0 mg/kg per os, 1 h after carrageenan
[17] = 2 h, 2.5 mg/kg per os, 2 h after carrageenan
[18] = 2 h, 5.0 mg/kg per os, 2 h after carrageenan
[19] = 2 h, 10.0 mg/kg per os, 2 h after carrageenan
[20] = 3 h, 2.5 mg/kg per os, 3 h after carrageenan
[21] = 3 h, 5.0 mg/kg per os, 3 h after carrageenan
[22] = 3 h, 10.0 mg/kg per os, 3 h after carrageenan
[23] = 4 h, 2.5 mg/kg per os, 4 h after carrageenan
[24] = 4 h, 5.0 mg/kg per os, 4 h after carrageenan
[25] = 4 h, 10.0 mg/kg per os, 4 h after carrageenan

COC(=O)[C@H](Cc1cn(C)c2ccccc12)NC(=S)NC(=O)[C@@H](C)c1ccc2cc(OC)ccc2c1 [Compound 7, Methyl-N^α-(((S)-2-(6-methoxynaphthalen-2-yl)propanoyl)carbamothioyl)-1-methyltryptophanate]
Rat paw thickness [1, 2]: 7.03 ± 0.15 mm
Rat paw thickness [1, 3]: 6.47 ± 0.21 mm
Rat paw thickness [1, 4]: 6.10 ± 0.20 mm
Rat paw thickness [1, 5]: 5.87 ± 0.21 mm
Rat paw thickness [1, 6]: 7.10 ± 0.17 mm
Rat paw thickness [1, 7]: 6.80 ± 0.20 mm
Rat paw thickness [1, 8]: 6.43 ± 0.32 mm
Rat paw thickness [1, 9]: 6.03 ± 0.61 mm
Rat paw thickness [1, 10]: 6.87 ± 0.25 mm
Rat paw thickness [1, 11]: 6.50 ± 0.36 mm
Rat paw thickness [1, 12]: 6.03 ± 0.21 mm
Rat paw thickness [1, 13]: 5.47 ± 0.38 mm
inhibition in vivo at 2.5 mg/kg [1, 14]: 21.6%
inhibition in vivo at 5 mg/kg [1, 15]: 24.4%
inhibition in vivo at 10 mg/kg [1, 16]: 14.8%
inhibition in vivo at 2.5 mg/kg [1, 17]: 38.7%
inhibition in vivo at 5 mg/kg [1, 18]: 29.5%
inhibition in vivo at 10 mg/kg [1, 19]: 21.8%
inhibition in vivo at 2.5 mg/kg [1, 20]: 47%
inhibition in vivo at 5 mg/kg [1, 21]: 36.1%
inhibition in vivo at 10 mg/kg [1, 22]: 32.4%
inhibition in vivo at 2.5 mg/kg [1, 23]: 49.4%
inhibition in vivo at 5 mg/kg [1, 24]: 47.1%
inhibition in vivo at 10 mg/kg [1, 25]: 54.1%
inhibition at 10 µM (COX-2): 24.2 ± 5.77%
inhibition at 10 µM (5-LOX): 20.7 ± 4.19%

COc1ccc(NC(=S)NC(=O)[C@@H](C)c2ccc3cc(OC)ccc3c2)cc1 [Compound 2, (S)-2-(6-methoxynaphthalen-2-yl)-N-((4-methoxyphenyl)carbamothioyl)propanamide]
Rat paw thickness [1, 2]: 6.57 ± 1.16 mm
Rat paw thickness [1, 3]: 6.07 ± 0.72 mm
Rat paw thickness [1, 4]: 5.77 ± 0.42 mm
Rat paw thickness [1, 5]: 5.30 ± 0.26 mm
Rat paw thickness [1, 6]: 7.03 ± 0.47 mm
Rat paw thickness [1, 7]: 6.40 ± 0.53 mm
Rat paw thickness [1, 8]: 5.70 ± 0.20 mm
Rat paw thickness [1, 9]: 5.53 ± 0.29 mm
Rat paw thickness [1, 10]: 6.5 ± 0.40 mm
Rat paw thickness [1, 11]: 6.17 ± 0.67 mm
Rat paw thickness [1, 12]: 5.53 ± 0.15 mm
Rat paw thickness [1, 13]: 5.33 ± 0.25 mm
inhibition in vivo at 2.5 mg/kg [1, 14]: 9.28%
inhibition in vivo at 5 mg/kg [1, 15]: 6.53%
inhibition in vivo at 10 mg/kg [1, 16]: 23%
inhibition in vivo at 2.5 mg/kg [1, 17]: 21.8%
inhibition in vivo at 5 mg/kg [1, 18]: 24.9%
inhibition in vivo at 10 mg/kg [1, 19]: 29.5%
inhibition in vivo at 2.5 mg/kg [1, 20]: 23.3%
inhibition in vivo at 5 mg/kg [1, 21]: 48.9%
inhibition in vivo at 10 mg/kg [1, 22]: 50.7%
inhibition in vivo at 2.5 mg/kg [1, 23]: 35.6%
inhibition in vivo at 5 mg/kg [1, 24]: 47.1%
inhibition in vivo at 10 mg/kg [1, 25]: 51.7%
inhibition at 10 µM (COX-2): 18.8 ± 4.37%
inhibition at 10 µM (5-LOX): 25.1 ± 1.83%
IC50 (5-LOX): 39.8 ± 1.98 µM

COc1cccc(NC(=S)NC(=O)[C@@H](C)c2ccc3cc(OC)ccc3c2)c1 [Compound 4, (S)-2-(6-methoxynaphthalen-2-yl)-N-((3-methoxyphenyl)carbamothioyl)propanamide]
Rat paw thickness [1, 2]: 5.93 ± 0.25 mm
Rat paw thickness [1, 3]: 5.40 ± 0.10 mm
Rat paw thickness [1, 4]: 5.17 ± 0.15 mm
Rat paw thickness [1, 5]: 4.90 ± 0.10 mm
Rat paw thickness [1, 6]: 6.10 ± 0.44 mm
Rat paw thickness [1, 7]: 5.97 ± 0.25 mm
Rat paw thickness [1, 8]: 5.70 ± 0.46 mm
Rat paw thickness [1, 9]: 5.22 ± 0.50 mm
Rat paw thickness [1, 10]: 6.00 ± 0.10 mm
Rat paw thickness [1, 11]: 5.70 ± 0.20 mm
Rat paw thickness [1, 12]: 5.30 ± 0.17 mm
Rat paw thickness [1, 13]: 4.90 ± 0.20 mm
inhibition in vivo at 2.5 mg/kg [1, 14]: 21.6%
inhibition in vivo at 5 mg/kg [1, 15]: 29.9%
inhibition in vivo at 10 mg/kg [1, 16]: 27.1%
inhibition in vivo at 2.5 mg/kg [1, 17]: 37.2%
inhibition in vivo at 5 mg/kg [1, 18]: 28%
inhibition in vivo at 10 mg/kg [1, 19]: 32.6%
inhibition in vivo at 2.5 mg/kg [1, 20]: 37.9%
inhibition in vivo at 5 mg/kg [1, 21]: 28.8%
inhibition in vivo at 10 mg/kg [1, 22]: 41.5%
inhibition in vivo at 2.5 mg/kg [1, 23]: 40.5%
inhibition in vivo at 5 mg/kg [1, 24]: 43.2%
inhibition in vivo at 10 mg/kg [1, 25]: 54%
inhibition at 10 µM (COX-2): 37.71 ± 0.28%
inhibition at 10 µM (5-LOX): 77.2 ± 0.26%
IC50 (5-LOX): 0.3 ± 0.12 µM
